The results in this text go back to article PMC4505424, “A Novel Mechanism for Binding of Galactose-terminated Glycans by the C-type Carbohydrate Recognition Domain in Blood Dendritic Cell Antigen 2” (The Journal of Biological Chemistry, 2015).

Experiment [1] deals with T1, BDCA-2 CRD (blood dendritic cell antigen 2) (Homo sapiens, UniProt Q8WTT0).
T1 construct: gene CLEC4C; extracellular C-type carbohydrate recognition domain; expected mass of CRD 17,100; monomer
T1 sequence (Q8WTT0 67-213): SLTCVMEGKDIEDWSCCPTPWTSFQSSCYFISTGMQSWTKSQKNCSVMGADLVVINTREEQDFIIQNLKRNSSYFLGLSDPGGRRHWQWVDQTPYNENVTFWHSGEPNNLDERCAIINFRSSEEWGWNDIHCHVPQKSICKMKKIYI
Briefly: solid-phase competition with […]-Man-BSA on immobilised CRD. In kind it is binding. The following applies: half-maximal inhibition, Ca2+-dependent.

Experiment [2] addresses T1, BDCA-2 CRD (blood dendritic cell antigen 2). The experiment is described as above. In kind it is binding. The following applies: half-maximal inhibition; Ca2+-dependent.

Molecules are shown by their SMILES.

A word on the Ki: it is a dissociation constant, usually derived from enzyme kinetics or from competition with a known ligand. A higher Ki goes with a looser hold on the target. The compound `CC(=O)N[C@H]1[C@H](O[C@@H]2C(O)O[C@H](CO)[C@@H](O)[C@@H]2O)O[C@H](CO)[C@@H](O)[C@@H]1O` (some centres unmarked) [GlcNAcβ1–2Man] gave an inhibition constant (Ki) in experiment [1] of 92 ± 12 µM. Consider `CC(=O)N[C@H]1[C@H](O[C@@H]2C(O)O[C@H](CO)[C@@H](O)[C@@H]2O)O[C@H](CO)[C@@H](O[C@@H]2O[C@H](CO)[C@H](O)[C@H](O)[C@H]2O)[C@@H]1O` (some centres unmarked) [Galβ1–4GlcNAcβ1–2Man], for which affinity in experiment [1] (extended site, mannose at Ca2+) was put at a Ki of 9.2 ± 1.4 µM.

In experiment [1], `CC(=O)N[C@H]1[C@H](O[C@H]2[C@H](O)[C@@H](NC(C)=O)C(O)O[C@@H]2CO)O[C@H](CO)[C@@H](O[C@@H]2O[C@H](CO[C@H]3O[C@H](CO)[C@@H](O)[C@H](O)[C@@H]3O[C@@H]3O[C@H](CO)[C@@H](O[C@@H]4O[C@H](CO[C@]5(C(=O)O)C[C@H](O)[C@@H](NC(C)=O)[C@H]([C@H](O)[C@H](O)CO)O5)[C@H](O)[C@H](O)[C@H]4O)[C@H](O)[C@H]3NC(C)=O)[C@@H](O)[C@H](O[C@H]3O[C@H](CO)[C@@H](O)[C@H](O)[C@@H]3O[C@@H]3O[C@H](CO)[C@@H](O[C@@H]4O[C@H](CO[C@]5(C(=O)O)C[C@H](O)[C@@H](NC(C)=O)[C@H]([C@H](O)[C@H](O)CO)O5)[C@H](O)[C@H](O)[C@H]4O)[C@H](O)[C@H]3NC(C)=O)[C@@H]2O)[C@@H]1O` (some centres unmarked) [disialylated oligosaccharide] had a Ki of 320 ± 20 µM. For the compound `CO[C@H]1O[C@H](CO)[C@H](O)[C@H](O)[C@H]1O` [galactose (α-methyl glycoside)], the “KI relative to KI for α-methyl mannoside” value in experiment [2] is “Comparison of mannose and galactose as competing ligands confirmed the affinity chromatography results”. Same read-out and setting: the same measure for `CO[C@H]1O[C@H](CO)[C@@H](O)[C@H](O)[C@H]1NC(C)=O` [GlcNAc (α-methyl glycoside)]: “including glucose and GlcNAc, as well as L-fucose, also compete for binding”. In experiment [1], `CC(=O)N[C@H]1[C@H](O[C@H]2[C@H](O)[C@@H](NC(C)=O)C(O)O[C@@H]2CO)O[C@H](CO)[C@@H](O[C@@H]2O[C@H](CO[C@H]3O[C@H](CO)[C@@H](O)[C@H](O)[C@@H]3O[C@@H]3O[C@H](CO)[C@@H](O[C@@H]4O[C@H](CO)[C@H](O)[C@H](O)[C@H]4O)[C@H](O)[C@H]3NC(C)=O)[C@@H](O)[C@H](O[C@H]3O[C@H](CO)[C@@H](O)[C@H](O)[C@@H]3O[C@@H]3O[C@H](CO)[C@@H](O[C@@H]4O[C@H](CO)[C@H](O)[C@H](O)[C@H]4O)[C@H](O)[C@H]3NC(C)=O)[C@@H]2O)[C@@H]1O` (some centres unmarked) [asialo biantennary glycan] displayed an inhibition constant (Ki) of 0.46 ± 0.01 µM.

For `CO[C@@H]1O[C@@H](C)[C@@H](O)[C@@H](O)[C@@H]1O` [L-fucose (α-methyl glycoside)], in experiment [2], the “KI relative to KI for α-methyl mannoside” value is “including glucose and GlcNAc, as well as L-fucose, also compete for binding”. The same measure, in the same setting: as for `CO[C@H]1O[C@H](CO)[C@@H](O)[C@H](O)[C@H]1O` [glucose (α-methyl glycoside)], the entry is “including glucose and GlcNAc, as well as L-fucose, also compete for binding”.
